Test results: US20260234147A1 (priority 2023, published 2026)
Like-named read-outs stand apart in the source and are kept apart here.

What was measured:
[1] = Metabolic stability in rat liver microsomes; format: in vitro ADME; settings: rat liver microsomes 1 mg/ml, substrate 1 μM, NADPH, 37° C.
Procedure: In vitro metabolic stability of each compound was determined using rat liver microsomes in triplicate. Verapamil was used as a positive control to check the activity of the microsomes. The incubation mixtures consisted of rat liver microsomes (1 mg microsomal protein/ml), substrate (1 μM), and reduced NADPH (1 mM) in a total volume of 0.4 ml potassium phosphate buffer (50 mM, pH 7.4). Reactions were initiated with the addition of NADPH and kept in an incubator shaker at 37° C. Aliquots of 25 μl were withdrawn at 0, 5, 10, 15, 30, and 60 min and mixed with 125 μl of acetonitrile with formic acid (0.1% v/v) containing phenacetin (50 ng/ml; internal standard) for the termination of the reaction. The samples were then vortex mixed and filtered through a […] 96-well membrane filtration plate under centrifugation at speed of 2000×g for 5 min at 4° C. The filtrates were subjected to UPLC-mass spectrometry (MS/MS) analysis.
The intrinsic clearance of the compounds was calculated using a half-life employing the ‘substrate depletion’ approach. The apparent half-life was calculated from the pseudo-first-order rate constants obtained by linear regression of log (concentration) and time plots. The in vitro intrinsic clearance of IFN was estimated using the formula: […]
Where k is the slope of the line obtained by plotting the natural logarithmic of the percentage of parent remaining versus time and V is the volume of incubation.
The in vitro intrinsic clearance was scaled to whole-organ (hepatic) in vivo intrinsic CL (CLint,H) using the scaling factors available in the literature using equation (Mahmood I. Application of allometric principles for the prediction of pharmacokinetics in human and veterinary drug development. Advanced drug delivery reviews, 2007, 59(11), 1177-1192)
MPPGL represents the microsomal protein per gram of Sprague Dawley rat liver (45 mg/g) and liver weight per kg body weight was 40 g/kg.

hDOR = hDOR (Homo sapiens, UniProt P41143); experiment: Radioligand binding assay (Eurofins Cerep), [3H]DADLE displacement
hMOR [2] = molecular target: T1, hMOR (Homo sapiens, UniProt P35372); experiment: Radioligand binding assay (Eurofins Cerep), [3H]DAMGO displacement
α2A adrenergic receptor = molecular target: T2, α2A adrenergic receptor (Homo sapiens, UniProt P08913); experiment: Radioligand binding assay (Eurofins Cerep), [3H]RX 821002 displacement
T2 construct: Eurofins Cerep (contract screening)
T2 sequence (P08913 1-465): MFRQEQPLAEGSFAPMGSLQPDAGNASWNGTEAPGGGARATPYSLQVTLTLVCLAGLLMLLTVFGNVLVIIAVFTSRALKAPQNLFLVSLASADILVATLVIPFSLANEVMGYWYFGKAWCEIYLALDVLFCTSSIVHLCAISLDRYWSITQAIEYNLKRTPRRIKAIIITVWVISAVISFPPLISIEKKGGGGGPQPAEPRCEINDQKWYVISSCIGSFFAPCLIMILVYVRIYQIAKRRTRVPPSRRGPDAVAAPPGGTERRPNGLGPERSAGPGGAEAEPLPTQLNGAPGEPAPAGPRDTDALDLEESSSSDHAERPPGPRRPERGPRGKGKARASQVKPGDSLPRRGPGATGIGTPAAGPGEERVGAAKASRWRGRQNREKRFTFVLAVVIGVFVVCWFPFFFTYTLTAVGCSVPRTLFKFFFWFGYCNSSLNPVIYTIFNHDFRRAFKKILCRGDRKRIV

hKOR = hKOR (Homo sapiens, UniProt P41145); experiment: Radioligand binding assay (Eurofins Cerep), [3H]U69,593 displacement
hMOR [3] = molecular target: T1, hMOR; experiment: Cyclic adenosine 3′,5′-monophosphate (cAMP) assay in hMOR-CHO cells; format: cell-based; settings: N=1, control agonist DAMGO
hMOR [4] = molecular target: T1, hMOR; experiment: cell-based; set-up: expressed in transfected cells; settings: for Emax: CHO
α2C adrenergic receptor = molecular target: T3, α2C adrenergic receptor (Homo sapiens, UniProt P18825); experiment: Radioligand binding assay (Eurofins Cerep), [3H]RX 821002 displacement; settings: Ki (nM ± SEM) a2C-AR, 3 independent experiments
T3 construct: Eurofins Cerep (contract screening)
T3 sequence (P18825 1-462): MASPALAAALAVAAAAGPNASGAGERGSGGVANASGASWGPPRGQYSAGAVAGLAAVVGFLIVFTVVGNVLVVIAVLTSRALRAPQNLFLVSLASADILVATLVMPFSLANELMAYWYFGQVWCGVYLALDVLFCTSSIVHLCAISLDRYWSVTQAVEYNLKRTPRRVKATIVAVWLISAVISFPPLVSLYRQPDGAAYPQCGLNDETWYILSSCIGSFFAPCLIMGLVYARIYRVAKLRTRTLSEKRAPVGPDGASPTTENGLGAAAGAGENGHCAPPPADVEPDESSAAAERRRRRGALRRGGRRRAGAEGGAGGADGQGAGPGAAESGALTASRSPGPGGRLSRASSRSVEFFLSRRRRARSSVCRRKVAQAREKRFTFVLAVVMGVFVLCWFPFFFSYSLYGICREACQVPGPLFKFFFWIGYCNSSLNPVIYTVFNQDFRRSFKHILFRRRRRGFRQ

hDOR, sequence (P41143 whole entry): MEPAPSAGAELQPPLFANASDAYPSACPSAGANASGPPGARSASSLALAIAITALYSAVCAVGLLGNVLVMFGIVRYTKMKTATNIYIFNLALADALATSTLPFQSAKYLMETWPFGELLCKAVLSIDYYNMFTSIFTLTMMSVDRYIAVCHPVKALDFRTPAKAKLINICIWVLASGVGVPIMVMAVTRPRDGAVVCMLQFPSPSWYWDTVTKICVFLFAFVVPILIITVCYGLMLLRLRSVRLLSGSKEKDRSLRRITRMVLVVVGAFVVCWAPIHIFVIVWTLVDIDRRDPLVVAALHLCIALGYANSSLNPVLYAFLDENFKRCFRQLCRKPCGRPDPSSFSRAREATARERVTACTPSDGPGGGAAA
T1 sequence (P35372 whole entry): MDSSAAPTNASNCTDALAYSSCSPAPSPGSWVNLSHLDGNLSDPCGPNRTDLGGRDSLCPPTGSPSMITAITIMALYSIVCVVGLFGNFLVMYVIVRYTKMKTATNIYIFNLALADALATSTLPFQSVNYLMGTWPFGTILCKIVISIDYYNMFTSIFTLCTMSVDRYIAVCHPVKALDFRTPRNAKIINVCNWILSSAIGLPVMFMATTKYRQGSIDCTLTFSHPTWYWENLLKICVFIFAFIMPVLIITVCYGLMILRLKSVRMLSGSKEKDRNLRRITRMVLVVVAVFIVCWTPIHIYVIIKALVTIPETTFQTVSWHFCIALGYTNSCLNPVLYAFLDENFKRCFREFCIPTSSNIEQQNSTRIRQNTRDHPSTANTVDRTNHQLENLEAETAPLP
hKOR, sequence (P41145 whole entry): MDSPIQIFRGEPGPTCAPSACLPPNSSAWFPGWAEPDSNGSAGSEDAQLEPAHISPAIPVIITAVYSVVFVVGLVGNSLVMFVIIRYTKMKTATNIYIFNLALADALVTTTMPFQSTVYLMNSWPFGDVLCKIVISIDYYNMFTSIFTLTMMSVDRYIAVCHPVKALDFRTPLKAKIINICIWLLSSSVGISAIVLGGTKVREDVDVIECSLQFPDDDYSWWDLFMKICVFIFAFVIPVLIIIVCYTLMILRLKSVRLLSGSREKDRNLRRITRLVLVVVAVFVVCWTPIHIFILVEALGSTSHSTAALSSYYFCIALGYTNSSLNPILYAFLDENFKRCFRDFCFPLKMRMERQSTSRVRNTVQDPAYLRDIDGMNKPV

Compound: CC[C@@H]1CN2CCc3c([nH]c4cccc(OC)c34)[C@@H]2C[C@@H]1/C(=C\OC)C(=O)N(C)C1CCCC1
- RLM stability [1]: <5 min
- Ki (hDOR; Table A1, data summary #1, read-out: DOR Ki ± SEM): 9750 ± 452 nM
- Ki (hDOR; Table A4, data summary #2, read-out: DOR Ki ± SEM): 6930 ± 1340 nM
- Ki (hMOR [2]; Table A4, data summary #2, read-out: MOR Ki ± SEM): 68 ± 7 nM
- Ki (hMOR [2]; read-out: Ki at hMOR): 67.8 nM
- Ki (α2A adrenergic receptor; Table A4, data summary #2, read-out: Alpha2A Ki ± SEM): 510 ± 82 nM
- Ki (hKOR; Table A1, data summary #1, read-out: KOR Ki ± SEM): 4600 ± 132 nM
- Ki (hKOR; Table A4, data summary #2, read-out: KOR Ki ± SEM): 4600 ± 132 nM
- functional activity in cAMP assay (hMOR [3]): antagonists
- functional activity in cAMP assay (hMOR [3]; listed as SUSM 522): antagonist

Compound: COC(=O)CC1CCN(CCc2c[nH]c3ccccc23)CC1 [Compound 3-24]
- Ki (hDOR; Table 3-1, 3 independent experiments, read-out: Ki (nM ± SEM) DOR): > 10000 nM
- Ki (hDOR; Table 3-2, 3 independent experiments, read-out: Ki (nM ± SEM) DOR): > 10000 nM
- Ki (hDOR; Table 3-3, 3 independent experiments, read-out: Ki (nM ± SEM) DOR): > 10000 nM
- Ki (hDOR; Table 3-4, 3 independent experiments, read-out: Ki (nM ± SEM) DOR): > 10000 nM
- Ki (hDOR; Table 3-5, 3 independent experiments, read-out: Ki (nM ± SEM) DOR): > 10000 nM
- Ki (hDOR; Table 3-6, 3 independent experiments, read-out: Ki (nM ± SEM) DOR): > 10000 nM
- functional character at MOR (hMOR [4]): low, but measurable, partial agonist activity
- Emax (hMOR [4]; read-out: MOR Emax ± SEM (%)): 23.8 ± 6.7%
- Emax (hMOR [4]; read-out: Emax at MOR (FIG. 1)): 24%
- EC50 (hMOR [4]; read-out: MOR EC50 ± SEM): 1220 nM
- Ki (α2C adrenergic receptor; Table 3-2): > 10000 nM
- Ki (α2C adrenergic receptor; Table 3-3): > 10000 nM
- Ki (α2C adrenergic receptor; Table 3-4): > 10000 nM
- Ki (α2C adrenergic receptor; Table 3-5): > 10000 nM
- Ki (α2C adrenergic receptor; Table 3-6): > 10000 nM
- SR: Selectivity Ratio (KiMOR/Kiα2A) (hMOR [2]; Table 3-1): 1.58
- Ki (hMOR [2]; Table 3-1, 3 independent experiments, read-out: Ki (nM ± SEM) MOR): 2230 ± 42.6 nM
- SR: Selectivity Ratio (KiMOR/Kiα2A) (hMOR [2]; Table 3-2): 1.58
- Ki (hMOR [2]; Table 3-2, 3 independent experiments, read-out: Ki (nM ± SEM) MOR): 2230 ± 42.6 nM
- SR: Selectivity Ratio (KiMOR/Kiα2A) (hMOR [2]; Table 3-3): 1.58
- Ki (hMOR [2]; Table 3-3, 3 independent experiments, read-out: Ki (nM ± SEM) MOR): 2230 ± 42.6 nM
- SR: Selectivity Ratio (KiMOR/Kiα2A) (hMOR [2]; Table 3-4): 1.58
- Ki (hMOR [2]; Table 3-4, 3 independent experiments, read-out: Ki (nM ± SEM) MOR): 2230 ± 42.6 nM
- SR: Selectivity Ratio (KiMOR/Kiα2A) (hMOR [2]; Table 3-5): 1.58
- Ki (hMOR [2]; Table 3-5, 3 independent experiments, read-out: Ki (nM ± SEM) MOR): 2230 ± 42.6 nM
- SR: Selectivity Ratio (KiMOR/Kiα2A) (hMOR [2]; Table 3-6): 1.58
- Ki (hMOR [2]; Table 3-6, 3 independent experiments, read-out: Ki (nM ± SEM) MOR): 2230 ± 42.6 nM
- Ki (hMOR [2]; Table 3-7, human MOR, read-out: MOR Ki (nM ± SEM)): 2230 ± 43 nM
- Ki (α2A adrenergic receptor; Ki (nM ± SEM) a2A-AR, Table 3-1, 3 independent experiments): 1410 ± 122 nM
- Ki (α2A adrenergic receptor; Ki (nM ± SEM) a2A-AR, Table 3-2, 3 independent experiments): 1410 ± 122 nM
- Ki (α2A adrenergic receptor; Ki (nM ± SEM) a2A-AR, Table 3-3, 3 independent experiments): 1410 ± 122 nM
- Ki (α2A adrenergic receptor; Ki (nM ± SEM) a2A-AR, Table 3-4, 3 independent experiments): 1410 ± 122 nM
- Ki (α2A adrenergic receptor; Ki (nM ± SEM) a2A-AR, Table 3-6, 3 independent experiments): 1410 ± 122 nM
- Ki (α2A adrenergic receptor; Ki (nM ± SEM) a2A-ar, Table 3-5, 3 independent experiments): 1410 ± 122 nM
- Ki (hKOR; Table 3-1, 3 independent experiments, read-out: Ki (nM ± SEM) KOR): > 10000 nM
- Ki (hKOR; Table 3-2, 3 independent experiments, read-out: Ki (nM ± SEM) KOR): > 10000 nM
- Ki (hKOR; Table 3-3, 3 independent experiments, read-out: Ki (nM ± SEM) KOR): > 10000 nM
- Ki (hKOR; Table 3-4, 3 independent experiments, read-out: Ki (nM ± SEM) KOR): > 10000 nM
- Ki (hKOR; Table 3-5, 3 independent experiments, read-out: Ki (nM ± SEM) KOR): > 10000 nM
- Ki (hKOR; Table 3-6, 3 independent experiments, read-out: Ki (nM ± SEM) KOR): > 10000 nM
